PMC7955127, “Preclinical small molecule WEHI-7326 overcomes drug resistance and elicits response in patient-derived xenograft models of human treatment-refractory tumors” (Cell Death & Disease, 2021)

What was measured:
[1] = system: LIM 2537; test: Cell growth inhibition assay, LIM 2537; assay type: cell-based; details: Homo sapiens; LIM 2537, colon carcinoma; 72 h viability assay, CellTiterGlo; mean of 3 ± SEM; read-out: IC50 (inhibition of cellular proliferation)
Protocol: Cells were plated at a density of between 500 to 5000 cells per well for adherent cell lines depending on doubling time, and 15,000 cells per well for lymphoblastic leukemia cell lines, in a 96-well plate in 200 μl of growth media. Plates were incubated overnight at 37 °C before adding the inhibitors. Inhibitors were serially diluted from the stock solutions in complete medium and added to the cells. […] Cell viability was assessed by the AlamarBlue (Invitrogen) or CellTiterBlue/Glo (Promega) method according to manufacturer’s instructions. The curve fits and IC50 values were generated in PRISM (GraphPad, San Diego, CA).

[2] = system: MH792 LUSC PDX; test: LUSC PDX model MH792; assay type: in vivo, NOD-SCID-IL2Rγc–/– mice
Protocol: LUSC PDXs were generated as described in[25]. PDXs at passage 4 were defrosted and washed with PBS before counting. 200,000 to 500,000 cells were then injected in a 50:50 PBS:Matrigel mix into the flanks of NOD-SCID-IL2Rγc–/– male mice. Tumors were measured twice weekly with calipers and treatment started when tumors were between 70–120 mm^3. Mice were assigned to treatment groups based on average tumor volume per group. Mice were culled when tumors reached a volume of 600 mm^3.

[3] = system: 134111 HGSOC PDX; test: HGSOC post-chemo PDX model 134111; assay type: in vivo, NSG mice; details: 134111 post-taxane, cisplatin-refractory PDX; 20 mg/kg i.v. twice a week, 6 weeks
Protocol: Two to three mm ovarian tumor fragments were subcutaneously engrafted in the left flank of NSG mice and monitored by physical palpation for tumor growth and engraftment. Engrafted tumors were measured twice a week using digital Vernier calipers and maximum tumor diameter + perpendicular tumor length were digitally recorded into the Study Director software (v 3.0/4.0 StudyLog). Tumor volume was calculated automatically (tumor volume (mm^3) = 0.5236 x [larger diameter (mm) x smaller diameter (mm)^2]). Mice were randomized to treatment once their tumor volume reach 180–300 mm^3 and tumor measurements were performed twice a week up to 120 days or when the tumor volume reaches 700 mm^3.
Time to progressive disease (PD): Defined as the time (in days) from beginning of treatment to an increase in average tumor volume of >20% from the nadir (taken as the smallest average tumor volume recorded since treatment started or 200 mm^3 if nadir was <200 mm^3 as lesions smaller than this are difficult to measure with accuracy). Median time to harvest (TTH): Defined as the time (in days) from the beginning of treatment to day of harvest at 700 mm^3 and the median TTH was calculated and plotted using Kaplan-Meier curves. Based on ref. [27]. […]

[4] = Metabolic stability in liver microsomes and cryopreserved hepatocytes; assay type: in vitro ADME; details: human, rat and mouse liver microsomes and cryopreserved hepatocytes
From the text: a Measured physicochemical and solubility data for WEHI-7326. […] Microsomal-predicted EH values are included.

COc1ccc(CNc2nc(NCc3ccc(CN)cc3)nc(NN3CC(=O)NC3=O)n2)cc1 [WEHI-7326]
IC50 [1]: 58.9 ± 7.5 nM | Adverse effects in treatment arm ([2]; MH792 PDX mice, 20 mg/kg i.v. twice a week, n = 8–10): 1 with hind limb paralysis after 4 weeks of treatment | Median survival ([2]; MH792 PDX, WEHI-7326 20 mg/kg i.v. biweekly, docetaxel 10 mg/kg i.p. once): 34 days | Tumor response [3]: ineffective | Rate of metabolism [4]: low rates of metabolism
